Each block holds one molecule with its values, some of them ahead of it.
Assays:
[1] = biological target: Urotensin-2 receptor (Homo sapiens) (UniProt Q9UKP6); assay: UT (h) CEREP ligand profiling; settings: Compound concentration 10.0 uM
[2] = biological target: Serine/threonine-protein kinase ULK1 (Homo sapiens) (UniProt O75385); settings: Compound concentration 1000.0 nM
[3] = biological target: Mitogen-activated protein kinase 14 (Homo sapiens) (UniProt Q16539); assay: p38 alpha kinase (h) CEREP ligand profiling; settings: Compound concentration 10.0 uM
Chain of Mitogen-activated protein kinase 14 (Homo sapiens) (Q16539 whole entry): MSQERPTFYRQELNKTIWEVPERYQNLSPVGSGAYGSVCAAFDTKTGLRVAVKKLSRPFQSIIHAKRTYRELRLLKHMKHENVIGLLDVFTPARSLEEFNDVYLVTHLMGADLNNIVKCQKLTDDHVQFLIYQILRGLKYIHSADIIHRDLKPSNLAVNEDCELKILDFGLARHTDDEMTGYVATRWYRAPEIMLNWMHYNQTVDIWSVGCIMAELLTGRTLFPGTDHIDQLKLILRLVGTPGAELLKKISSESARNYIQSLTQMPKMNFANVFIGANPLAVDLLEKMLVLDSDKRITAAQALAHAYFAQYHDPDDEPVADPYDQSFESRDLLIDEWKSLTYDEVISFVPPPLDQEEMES

[4] = biological target: Mitogen-activated protein kinase 1 (Homo sapiens) (UniProt P28482); settings: Compound concentration 1000.0 nM
[5] = biological target: cAMP-dependent protein kinase catalytic subunit PRKX (Homo sapiens) (UniProt P51817); settings: Compound concentration 1000.0 nM
Chain of cAMP-dependent protein kinase catalytic subunit PRKX (Homo sapiens) (P51817 whole entry): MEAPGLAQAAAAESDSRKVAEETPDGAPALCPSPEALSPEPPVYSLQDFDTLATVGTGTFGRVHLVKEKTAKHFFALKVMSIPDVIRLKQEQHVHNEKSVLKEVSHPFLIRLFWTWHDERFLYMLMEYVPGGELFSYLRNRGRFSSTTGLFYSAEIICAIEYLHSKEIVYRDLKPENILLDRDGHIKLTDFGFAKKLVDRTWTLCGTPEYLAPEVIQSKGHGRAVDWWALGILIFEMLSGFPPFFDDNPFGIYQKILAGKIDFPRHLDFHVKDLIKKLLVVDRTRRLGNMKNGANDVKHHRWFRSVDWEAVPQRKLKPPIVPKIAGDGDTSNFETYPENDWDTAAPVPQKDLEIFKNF

[6] = biological target: Serine/threonine-protein kinase PAK 1 (Homo sapiens) (UniProt Q13153); settings: Compound concentration 1000.0 nM
D(1A) dopamine receptor = D(1A) dopamine receptor (Homo sapiens, UniProt P21728); assay: D1 (h) CEREP ligand profiling; settings: Compound concentration 10.0 uM
[7] = biological target: Cyclin-dependent kinase-like 3 (Homo sapiens) (UniProt Q8IVW4); settings: Compound concentration 1000.0 nM
[8] = biological target: Vascular endothelial growth factor receptor 1 (Homo sapiens) (UniProt P17948); assay: FLT-1 kinase (h) (VEGFR1) CEREP ligand profiling; settings: Compound concentration 10.0 uM
Chain of Vascular endothelial growth factor receptor 1 (Homo sapiens) (P17948 whole entry): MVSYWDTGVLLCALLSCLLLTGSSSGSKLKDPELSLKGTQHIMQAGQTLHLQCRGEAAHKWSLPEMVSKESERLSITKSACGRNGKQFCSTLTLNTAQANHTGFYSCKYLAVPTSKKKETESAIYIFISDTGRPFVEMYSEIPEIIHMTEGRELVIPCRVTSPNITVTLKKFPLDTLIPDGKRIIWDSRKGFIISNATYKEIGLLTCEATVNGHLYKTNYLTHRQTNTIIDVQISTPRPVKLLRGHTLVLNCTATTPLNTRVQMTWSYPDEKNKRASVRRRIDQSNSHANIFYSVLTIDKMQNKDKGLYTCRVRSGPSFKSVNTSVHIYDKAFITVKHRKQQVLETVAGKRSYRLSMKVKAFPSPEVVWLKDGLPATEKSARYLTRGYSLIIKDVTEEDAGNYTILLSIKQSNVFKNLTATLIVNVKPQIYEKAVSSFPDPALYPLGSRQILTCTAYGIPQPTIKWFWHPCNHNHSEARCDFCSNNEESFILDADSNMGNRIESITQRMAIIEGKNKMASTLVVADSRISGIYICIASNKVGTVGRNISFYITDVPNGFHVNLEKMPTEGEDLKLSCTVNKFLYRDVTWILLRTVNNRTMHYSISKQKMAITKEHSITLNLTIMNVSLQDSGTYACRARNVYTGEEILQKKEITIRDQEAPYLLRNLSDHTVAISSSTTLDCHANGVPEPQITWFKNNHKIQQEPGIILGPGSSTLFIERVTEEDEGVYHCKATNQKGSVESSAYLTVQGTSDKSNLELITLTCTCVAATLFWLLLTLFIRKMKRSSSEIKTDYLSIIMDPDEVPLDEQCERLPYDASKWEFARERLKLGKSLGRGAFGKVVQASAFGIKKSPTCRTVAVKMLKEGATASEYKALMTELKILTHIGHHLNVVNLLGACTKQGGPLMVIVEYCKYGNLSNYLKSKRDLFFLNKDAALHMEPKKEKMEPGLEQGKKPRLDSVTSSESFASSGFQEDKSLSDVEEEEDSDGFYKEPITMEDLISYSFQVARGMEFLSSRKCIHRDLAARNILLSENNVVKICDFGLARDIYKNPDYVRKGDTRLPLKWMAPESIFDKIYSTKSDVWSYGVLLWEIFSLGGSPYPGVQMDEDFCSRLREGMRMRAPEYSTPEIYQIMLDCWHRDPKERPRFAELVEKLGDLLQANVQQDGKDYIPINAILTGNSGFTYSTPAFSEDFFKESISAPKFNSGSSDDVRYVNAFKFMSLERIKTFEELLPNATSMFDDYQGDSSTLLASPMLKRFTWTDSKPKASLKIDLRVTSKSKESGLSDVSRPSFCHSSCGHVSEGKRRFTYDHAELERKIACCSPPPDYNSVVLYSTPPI

[9] = biological target: Myotonin-protein kinase (Homo sapiens) (UniProt Q09013); settings: Compound concentration 1000.0 nM
[10] = system: Proto-oncogene tyrosine-protein kinase receptor Ret (Homo sapiens), P07949 [M918T]; settings: Compound concentration 1000.0 nM
[11] = biological target: Mitogen-activated protein kinase kinase kinase 2 (Homo sapiens) (UniProt Q9Y2U5); settings: Compound concentration 1000.0 nM
[12] = biological target: NUAK family SNF1-like kinase 1 (Homo sapiens) (UniProt O60285); settings: Compound concentration 1000.0 nM
[13] = biological target: Serine/threonine-protein kinase PLK4 (Homo sapiens) (UniProt O00444); settings: Compound concentration 1000.0 nM
[14] = biological target: GABA-A receptor; anion channel (Homo sapiens) (UniProt P14867+P47870+P18507+P28472+P48169+Q99928+Q9UN88+P34903+O00591+O14764+Q8N1C3+P18505+P78334+P47869+P31644+Q16445); assay: GABAA CEREP ligand profiling; type: protein-complex assay; settings: Compound concentration 10.0 uM
[15] = biological target: Ribosomal protein S6 kinase alpha-4 (Homo sapiens) (UniProt O75676); settings: Compound concentration 1000.0 nM
[16] = biological target: Tyrosine 3-monooxygenase (Homo sapiens) (UniProt P07101); assay: TH CEREP ligand profiling; settings: Compound concentration 10.0 uM
Chain of Tyrosine 3-monooxygenase (Homo sapiens) (P07101 whole entry): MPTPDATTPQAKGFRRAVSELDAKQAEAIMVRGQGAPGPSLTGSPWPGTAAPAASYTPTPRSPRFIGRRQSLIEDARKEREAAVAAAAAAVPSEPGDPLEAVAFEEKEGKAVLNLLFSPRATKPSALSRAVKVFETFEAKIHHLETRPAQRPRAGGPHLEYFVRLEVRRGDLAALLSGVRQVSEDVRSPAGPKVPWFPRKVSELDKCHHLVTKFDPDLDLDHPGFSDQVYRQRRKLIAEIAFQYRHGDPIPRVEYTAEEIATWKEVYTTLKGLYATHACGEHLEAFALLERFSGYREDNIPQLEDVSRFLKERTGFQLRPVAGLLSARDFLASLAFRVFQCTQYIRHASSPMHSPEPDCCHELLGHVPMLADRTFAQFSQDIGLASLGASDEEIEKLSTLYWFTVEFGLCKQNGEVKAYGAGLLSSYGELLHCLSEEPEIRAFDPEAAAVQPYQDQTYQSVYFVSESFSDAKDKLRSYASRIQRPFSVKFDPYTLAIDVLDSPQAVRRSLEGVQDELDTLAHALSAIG

[17] = biological target: Serine/threonine-protein kinase 32A (Homo sapiens) (UniProt Q8WU08); settings: Compound concentration 1000.0 nM
Chain of Serine/threonine-protein kinase 32A (Homo sapiens) (Q8WU08 whole entry, canonical isoform): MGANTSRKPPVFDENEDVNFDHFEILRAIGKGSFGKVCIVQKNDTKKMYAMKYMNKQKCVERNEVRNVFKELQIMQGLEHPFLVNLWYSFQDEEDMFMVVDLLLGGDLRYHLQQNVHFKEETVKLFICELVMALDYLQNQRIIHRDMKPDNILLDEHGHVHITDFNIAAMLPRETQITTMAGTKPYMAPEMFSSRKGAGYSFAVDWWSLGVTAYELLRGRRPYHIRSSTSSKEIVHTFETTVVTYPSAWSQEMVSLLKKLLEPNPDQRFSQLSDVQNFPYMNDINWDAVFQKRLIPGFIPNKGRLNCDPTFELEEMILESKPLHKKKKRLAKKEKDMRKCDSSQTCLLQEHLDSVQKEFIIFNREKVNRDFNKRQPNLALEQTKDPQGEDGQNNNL

[18] = system: Phosphatidylinositol 4,5-bisphosphate 3-kinase catalytic subunit alpha isoform (Homo sapiens), P42336 [Q546K]; settings: Compound concentration 1000.0 nM
[19] = biological target: Calcium/calmodulin-dependent protein kinase type II subunit alpha (Homo sapiens) (UniProt Q9UQM7); assay: CaMK2alpha (h) CEREP ligand profiling; settings: Compound concentration 10.0 uM
[20] = biological target: Insulin receptor (Homo sapiens) (UniProt P06213); settings: Compound concentration 1000.0 nM
[21] = biological target: Tyrosine-protein kinase ZAP-70 (Homo sapiens) (UniProt P43403); assay: ZAP70 kinase (h) CEREP ligand profiling; settings: Compound concentration 10.0 uM
[22] = biological target: Serine/threonine-protein kinase pim-3 (Homo sapiens) (UniProt Q86V86); settings: Compound concentration 1000.0 nM
Prostacyclin receptor = Prostacyclin receptor (Homo sapiens, UniProt P43119); assay: Binding assay (PTGIR)
[23] = biological target: Maternal embryonic leucine zipper kinase (Homo sapiens) (UniProt Q14680); settings: Compound concentration 1000.0 nM
Chain of Maternal embryonic leucine zipper kinase (Homo sapiens) (Q14680 whole entry, looked up): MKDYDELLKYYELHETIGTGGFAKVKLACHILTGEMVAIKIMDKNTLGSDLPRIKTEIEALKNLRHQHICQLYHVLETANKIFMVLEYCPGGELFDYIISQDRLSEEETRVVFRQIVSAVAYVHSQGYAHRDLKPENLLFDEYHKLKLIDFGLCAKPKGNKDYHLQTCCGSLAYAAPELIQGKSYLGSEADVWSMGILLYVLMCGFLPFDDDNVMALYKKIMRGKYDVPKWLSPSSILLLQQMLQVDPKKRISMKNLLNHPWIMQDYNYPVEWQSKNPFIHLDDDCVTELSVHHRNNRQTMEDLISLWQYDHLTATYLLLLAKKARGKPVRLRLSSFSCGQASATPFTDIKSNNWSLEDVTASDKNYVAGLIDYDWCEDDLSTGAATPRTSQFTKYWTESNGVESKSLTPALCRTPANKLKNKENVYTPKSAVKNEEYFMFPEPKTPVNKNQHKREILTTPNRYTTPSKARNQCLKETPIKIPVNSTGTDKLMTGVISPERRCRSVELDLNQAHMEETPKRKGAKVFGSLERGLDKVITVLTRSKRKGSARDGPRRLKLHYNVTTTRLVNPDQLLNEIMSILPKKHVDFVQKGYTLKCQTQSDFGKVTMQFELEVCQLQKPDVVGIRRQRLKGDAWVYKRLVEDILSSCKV

[24] = biological target: Serine/threonine-protein kinase Chk1 (Homo sapiens) (UniProt O14757); settings: Compound concentration 1000.0 nM
[25] = biological target: Macrophage colony-stimulating factor 1 receptor (Homo sapiens) (UniProt P07333); settings: Compound concentration 1000.0 nM
[26] = biological target: Kappa-type opioid receptor (Homo sapiens) (UniProt P41145); assay: kappa (KOP) CEREP ligand profiling; settings: Compound concentration 10.0 uM
[27] = biological target: Cytoplasmic tyrosine-protein kinase BMX (Homo sapiens) (UniProt P51813); settings: Compound concentration 1000.0 nM
[28] = biological target: Adenosine receptor A3 (Homo sapiens) (UniProt P0DMS8); assay: A3 (h) CEREP ligand profiling; settings: Compound concentration 10.0 uM
[29] = biological target: Serine/threonine-protein kinase RIO3 (Homo sapiens) (UniProt O14730); settings: Compound concentration 1000.0 nM
[30] = biological target: Ephrin type-B receptor 4 (Homo sapiens) (UniProt P54760); settings: Compound concentration 1000.0 nM
Chain of Ephrin type-B receptor 4 (Homo sapiens) (P54760 whole entry): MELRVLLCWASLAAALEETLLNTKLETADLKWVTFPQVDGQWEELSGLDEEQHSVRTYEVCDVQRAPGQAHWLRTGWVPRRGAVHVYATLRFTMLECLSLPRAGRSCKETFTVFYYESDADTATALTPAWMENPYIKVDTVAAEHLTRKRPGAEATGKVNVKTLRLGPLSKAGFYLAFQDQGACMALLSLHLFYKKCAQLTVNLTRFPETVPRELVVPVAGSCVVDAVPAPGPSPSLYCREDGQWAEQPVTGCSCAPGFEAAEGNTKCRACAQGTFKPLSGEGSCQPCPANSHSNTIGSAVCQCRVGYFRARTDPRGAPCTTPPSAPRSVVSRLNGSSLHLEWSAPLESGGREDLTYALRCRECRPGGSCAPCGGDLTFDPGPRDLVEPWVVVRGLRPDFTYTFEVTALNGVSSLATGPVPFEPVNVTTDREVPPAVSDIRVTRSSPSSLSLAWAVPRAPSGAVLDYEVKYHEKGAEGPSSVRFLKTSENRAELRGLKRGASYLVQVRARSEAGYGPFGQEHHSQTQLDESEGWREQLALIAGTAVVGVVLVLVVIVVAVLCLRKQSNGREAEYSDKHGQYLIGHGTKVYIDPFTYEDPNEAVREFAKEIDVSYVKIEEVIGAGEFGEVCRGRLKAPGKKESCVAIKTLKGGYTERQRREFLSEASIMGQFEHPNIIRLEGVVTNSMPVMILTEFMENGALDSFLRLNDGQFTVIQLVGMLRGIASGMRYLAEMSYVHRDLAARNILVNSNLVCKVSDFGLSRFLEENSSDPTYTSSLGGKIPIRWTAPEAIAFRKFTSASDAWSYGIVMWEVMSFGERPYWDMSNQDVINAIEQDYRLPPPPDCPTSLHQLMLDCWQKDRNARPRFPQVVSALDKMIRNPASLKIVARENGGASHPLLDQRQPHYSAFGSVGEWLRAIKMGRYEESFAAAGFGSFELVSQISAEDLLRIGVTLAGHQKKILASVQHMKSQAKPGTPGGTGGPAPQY

[31] = system: Tyrosine-protein kinase ABL1 (Homo sapiens), P00519 [T315I]; settings: Compound concentration 1000.0 nM
[32] = system: Epidermal growth factor receptor (Homo sapiens), P00533 [UNDEFINED MUTATION]; settings: Compound concentration 1000.0 nM
[33] = biological target: Tyrosine-protein kinase Fgr (Homo sapiens) (UniProt P09769); settings: Compound concentration 1000.0 nM
[34] = biological target: Gastrin/cholecystokinin type B receptor (Homo sapiens) (UniProt P32239); assay: CCKB (h) (CCK2) CEREP ligand profiling; settings: Compound concentration 10.0 uM
[35] = biological target: Histamine H1 receptor (Homo sapiens) (UniProt P35367); settings: Compound concentration 10.0 uM
[36] = biological target: Sigma non-opioid intracellular receptor 1 (Homo sapiens) (UniProt Q99720); settings: Compound concentration 10.0 uM

Chain of Urotensin-2 receptor (Homo sapiens) (Q9UKP6 whole entry, looked up): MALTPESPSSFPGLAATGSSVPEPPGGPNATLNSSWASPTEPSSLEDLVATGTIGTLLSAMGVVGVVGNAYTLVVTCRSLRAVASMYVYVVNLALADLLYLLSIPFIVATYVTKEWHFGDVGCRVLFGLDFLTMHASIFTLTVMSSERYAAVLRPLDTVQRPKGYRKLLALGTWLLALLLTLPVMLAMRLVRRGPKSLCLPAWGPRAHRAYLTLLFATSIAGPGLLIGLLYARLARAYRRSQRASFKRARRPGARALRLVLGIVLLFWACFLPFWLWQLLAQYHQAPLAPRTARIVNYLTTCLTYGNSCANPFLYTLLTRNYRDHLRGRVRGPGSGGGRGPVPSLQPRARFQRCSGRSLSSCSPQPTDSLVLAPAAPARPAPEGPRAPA

SMILES: COc1ccc2cc(OCC3(C(=O)O)CN(C(=O)c4ccc(F)cc4)C3)ccc2c1 [PF-04418948]
- inhibition [1]: 14%
- residual activity [2]: 92%
- inhibition [3]: -1%
- residual activity [4]: 97%
- residual activity [5]: 90%
- residual activity [6]: 87%
- inhibition (D(1A) dopamine receptor): 5%
- residual activity [7]: 89%
- inhibition [8]: 9%
- residual activity [9]: 76%
- residual activity [10]: 75%
- residual activity [11]: 96%
- residual activity [12]: 94%
- residual activity [13]: 82%
- inhibition [14]: 16%
- residual activity [15]: 85%
- inhibition [16]: -10%
- residual activity [17]: 97%
- residual activity [18]: 42%
- inhibition [19]: 5%
- residual activity [20]: 93%
- inhibition [21]: 9%
- residual activity [22]: 98%
- Ki (Prostacyclin receptor): > 10 µM (not active)
- residual activity [23]: 86%
- residual activity [24]: 87%
- residual activity [25]: 75%
- inhibition [26]: 46%
- residual activity [27]: 87%
- inhibition [28]: -10%
- residual activity [29]: 97%
- residual activity [30]: 95%
- residual activity [31]: 84%
- residual activity [32]: 87%
- residual activity [33]: 96%
- inhibition [34]: -8%

- inhibition [35]: -4.38%
- inhibition [36]: 20.3%
SMILES: O=C(c1ccc(F)cc1)N1CC(COc2ccc(Br)cc2)(C(=O)O)C1 [PF-04475866]

Reference: ChEMBL document CHEMBL4507298 (2021)
